Experimental data from patent US6448274B2, “Fluoroalkoxy-substituted benzamide dichloropyridinyl N-oxide PDE4 inhibitor” (Merck Frosst Canada & Co., priority 2000, dated 2002).
Like-named read-outs stand apart in the source and are kept apart here.

Assays:
[1] = system: duration of anesthesia induced by the combination of xylazine and ketamine in rats; test: Effect on duration of anesthesia induced by xylazine and ketamine; assay type: in vivo, Male Sprague-Dawley rats; conditions: 3 mg/kg i.p.; for Duration of anesthesia (min), Compound treated group: n = 5, mean ± S.E.M., return of righting reflex as endpoint; for Effect on duration of anaesthesia (in words): n=5
Procedure: (§1) Compound I of the present invention was compared to Compound II by testing the for effects on the duration of anesthesia induced by the combination of xylazine and ketamine in rats. Male Sprague-Dawley rats were anaesthetised with a combination of xylazine (10 mg/kg) and ketamine (10 mg/kg) administered in a single intramuscular injection in the back hindlimb. Fifteen minutes later, the drug to be tested or its vehicle was injected intraperitoneally (dosing volume=1 ml/kg) and the animals were placed in dorsal recumbence. The compounds were dissolved immediately before use in polyethylene glycol (M.W. 200). The return of the righting reflex (i.e. when the animal no longer remained on its back and turned itself spontaneously to the prone position) was used as an endpoint to determine the duration of anaesthesia.
(§2) At the end of the experiment, at 60 minutes post-dosing, plasma and brain samples were taken for drug concentration determination.

[2] = Plasma and brain concentrations at 60 minutes post-dosing; assay type: in vivo; conditions: male, Sprague-Dawley, rat, ip, rats, 3 mg/kg i.p.; for Kp at 60 min: brain and plasma, n=5
Procedure: as §1, §2
However, the distribution to the brain was very different for each compound.

[3] = brain, n=5, read-out: Brain concentration
[4] = plasma, n=5, read-out: Plasma concentration

SMILES	Inhibition % (of duration of anesthesia vs vehicle treated group) [1]	Duration of anesthesia (min), Compound treated group [1]	Effect on duration of anaesthesia (in words) [1]	Kp at 60 min [2]	concentration at 60 min [2, 3]	concentration at 60 min [2, 4]
O=C(Nc1c(Cl)c[n+]([O-])cc1Cl)c1ccc(OC(F)F)c(OCC2CC2)c1 [Compound Formula I, N-(3,5-Dichloro-1-oxido-pyridin-4-yl)-4-difluoromethoxy-3-cyclopropylmethoxybenzamide]	15.6%	37.40 ± 7.83 min	did not significantly modify the duration of anaesthesia	0.0938	410 ± 150 nM	4370 ± 1650 nM
O=C(Nc1c(Cl)cncc1Cl)c1ccc(OC(F)F)c(OCC2CC2)c1 [Compound Formula II, N-(3,5-Dichloropyridin-4-yl)-4-difluoromethoxy-3-cyclopropylmethoxybenzamide]	54.7%	19.20 ± 4.68 min	significant reduction in the duration of the anaesthesia	0.75	150 ± 50 nM	200 ± 80 nM
